The record followed here is patent US10961238B2, “Modulators of hedgehog (Hh) signaling pathway” (E-THERAPEUTICS PLC, priority 2016, dated 2021).

A value given as a limit tells only on which side of the number the result lay.

This assay has as its system C3H10T1/2 cells. Nature of the assay: C3H assay: differentiation of C3H10T1/2 cells by mSHH, measurement of alkaline phosphatase. The format is cell-based, mouse. Conditions: Mus musculus, C3H 10T1/2; C3H10T1/2 cells stimulated with mSHH for 72 hours; alkaline phosphatase activity; read-out: IC50 Ranges.
As for `Cc1ccc2c(C3CCN(S(=O)(=O)C4CN(C(=O)Nc5cc(F)ccc5C)C4)CC3)c[nH]c2n1` [Compound 368, N-(5-fluoro-2-methylphenyl)-3-[4-(6-methyl-1H-pyrrolo[2,3-b]pyridin-3-yl)piperidin-1-yl]sulfonylaze-tidine-1-carboxamide], the IC50 was 1000 to 10000 nM.
Consider `CC(C)(C)OC(=O)N1CCC(S(=O)(=O)N2CCC(c3c[nH]c4ccccc34)CC2)CC1` [Compound 133, tert-butyl 4-[4-(1H-indol-3-yl)piperidin-1-yl]sulfonylpiper-idine-1-carboxylate], for which the IC50 was 100 to 1000 nM.
`Cc1cccc(C)c1NC(=O)N1CC(S(=O)(=O)N2CCC(c3c[nH]c4ncccc34)CC2)C1` [Compound 391, N-(2,6-dimethylphenyl)-3-[4-(1H-pyrrolo[2,3-b]pyridin-3-yl)piperidin-1-yl]sulfonylaze-tidine-1-carboxamide]: the IC50 was 10 to 100 nM.
`COc1ccc(COC(=O)N2CC(S(=O)(=O)N3CCC(c4c[nH]c5ncccc45)CC3)C2)cc1F` [Compound 209, (3-fluoro-4-methoxyphenyl) methyl 3-[4-(1H-pyrrolo[2,3-b]pyridin-3-yl)piperidin-1-yl]sulfonylaze-tidine-1-carboxylate]: the IC50 fell in the range of 10 to 100 nM.
In the case of `CC(C)(O)CC(=O)N1CC(S(=O)(=O)N2CCC(c3coc4cccnc34)CC2)C1` [Compound 398, 1-[3-(4-furo[3,2-b]pyridin-3-ylpiperidin-1-yl)sulfonylaze-tidin-1-yl]-3-hydroxy-3-methylbutan-1-one], the IC50 fell in the range of 100 to 1000 nM.
Consider `CC(C)(C)OC(=O)N1CCC(S(=O)(=O)N2CCC(c3ncnc4[nH]ccc34)CC2)CC1` [Compound 10, tert-butyl 4-[4-(7H-pyrrolo[2,3-d]pyrimidin-4-yl)piperidin-1-yl]sulfonylpiper-idine-1-carboxylate], for which the IC50 is 1000 to 10000 nM.
In the case of `CC(C)N(C)C(=O)N1CC(S(=O)(=O)N2CCC(c3c[nH]c4ncccc34)CC2)C1` [Compound 119, N-methyl-N-propan-2-yl-3-[4-(1H-pyrrolo [2,3-b]pyridin-3-yl)piperidin-1-yl]sulfonylaze-tidine-1-carboxamide], the half-maximal inhibitory concentration (IC50) lay within 10 to 100 nM.
With `CN(C(=O)N1CC(S(=O)(=O)N2CCC(c3ccc(C#N)cc3)CC2)C1)C1CC1` [Compound 350, 3-[4-(4-cyanophenyl)piperidin-1-yl]sulfonyl-N-cyclopropyl-N-methylazetidine-1-carboxamide] the figure was 1000 to 10000 nM; with `COC(=O)N1CC(S(=O)(=O)N2CCC(c3c[nH]c4ncccc34)CC2)C1` [Compound 151, methyl 3-[4-(1H-pyrrolo [2,3-b]pyridin-3-yl)piperidin-1-yl]sulfonylaze-tidine-1-carboxylate], 100 to 1000 nM.
In the case of `Cc1ccc2c(C3CCN(S(=O)(=O)C4CN(C(=O)N5C[C@@H](C)O[C@@H](C)C5)C4)CC3)c[nH]c2n1` [Compound 381, [cis-2,6-dimethylmorpholin-4-yl]-[3-[4-(6-methyl-1H-pyrrolo[2,3-b]pyridin-3-yl)piperidin-1-yl]sulfonylazetidin-1-yl]methanone], the IC50 was less than 10 nM.
On to `COC(=O)c1cnc(N2CC(S(=O)(=O)N3CCC(c4c[nH]c5ncccc45)CC3)C2)s1` [Compound 245, methyl 2-[3-[4-(1H-pyrrolo[2,3-b]pyridin-3-yl)piperidin-1-yl]sulfonylaze-tidin-1-yl]-1,3-thiazole-5-carboxylate], for which the IC50 was 100 to 1000 nM.
With `CC(C)(CN1CCOCC1)CN1CC(S(=O)(=O)N2CCC(c3c[nH]c4ncccc34)CC2)C1` [Compound 146] the figure was 1000 to 10000 nM; with `Cc1cc(Cl)ccc1C1CCN(S(=O)(=O)C2CN(C(=O)CN(C(C)C)C(C)C)C2)CC1` [Compound 317, 1-[3-[4-(4-chloro-2-methylphenyl)piperidin-1-yl]sulfonylaze-tidin-l-yl]-2-[di(propan-2-yl)amino] ethanone], 100 to 1000 nM.
Consider `O=S(=O)(C1CN(c2ccccn2)C1)N1CCC(c2c[nH]c3ncccc23)CC1` [Compound 118, 3-[1-[1-(2-Pyridyl)azetidin-3-yl]sulfonyl-4-piperidyl]-1H-pyrrolo[2,3-b]pyridine], for which the IC50 was in the range of 10 to 100 nM.

The IC50 is the concentration that inhibits the measured activity by half.
